# From patent US20060069132A1, “Azolecarboxamide herbicides” (priority 2004, published 2006)
# Experiments:
# [1] = system: barnyardgrass; assay: Test B pre-/postemergence herbicide test; format: in vivo, Echinochloa crus-galli; settings: for Barnyardgrass plant response rating: scale 0 (no effect) to 100 (complete control)
# Method in brief: (§1)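 Flooded paddy rice and barnyardgrass were treated at the 2-leaf stage; upland plantings received compound either on sown seed or on 1- to 4-leaf seedlings. All were kept 13–15 days in a greenhouse and scored visually, 0–100, relative to untreated plants.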
# [2] = system: Surinam grass; assay: Test B pre-/postemergence herbicide test; format: in vivo, Urochloa decumbens; settings: for Surinam Grass plant response rating: scale 0 (no effect) to 100 (complete control)
# Method in brief: (§2)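 Test chemicals in a non-phytotoxic solvent mixture with surfactant were applied preemergence to seeded species and postemergence to plants 2-18 cm tall (1- to 4-leaf stage); rice and barnyardgrass were also tested in a flooded paddy at the 2-leaf stage. Visual rating versus controls after 13-15 days in greenhouse, scale 0 (no effect) to 100 (complete control).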
# [3] = system: cocklebur; assay: Test B pre-/postemergence herbicide test; format: in vivo, Xanthium strumarium; settings: for Cocklebur plant response rating: scale 0 (no effect) to 100 (complete control)
# Method in brief: as §1
# [4] = system: corn; assay: Test B pre-/postemergence herbicide test; format: in vivo, Zea mays; settings: for Corn plant response rating: scale 0 (no effect) to 100 (complete control)
# Method in brief: as §2
# [5] = system: large crabgrass; assay: Test B pre-/postemergence herbicide test; format: in vivo, Digitaria sanguinalis; settings: for Crabgrass, Large plant response rating: scale 0 (no effect) to 100 (complete control)
# Method in brief: as §2
# [6] = system: giant foxtail; assay: Test B pre-/postemergence herbicide test; format: in vivo, Setaria faberi; settings: for Foxtail, Giant plant response rating: scale 0 (no effect) to 100 (complete control)
# Method in brief: as §2
# [7] = system: lambsquarters; assay: Test B pre-/postemergence herbicide test; format: in vivo, Chenopodium album; settings: for Lambsquarters plant response rating: scale 0 (no effect) to 100 (complete control)
# Method in brief: as §2
# [8] = system: morningglory; assay: Test B pre-/postemergence herbicide test; format: in vivo, Ipomoea coccinea; settings: for Morningglory plant response rating: scale 0 (no effect) to 100 (complete control)
# Method in brief: as §1
# [9] = system: pigweed; assay: Test B pre-/postemergence herbicide test; format: in vivo, Amaranthus retroflexus; settings: for Pigweed plant response rating: scale 0 (no effect) to 100 (complete control)
# Method in brief: as §2
# [10] = system: velvetleaf; assay: Test B pre-/postemergence herbicide test; format: in vivo, Abutilon theophrasti; settings: for Velvetleaf plant response rating: scale 0 (no effect) to 100 (complete control)
# Method in brief: as §2
# [11] = system: blackgrass; assay: Test B postemergence herbicide test; format: in vivo, Alopecurus myosuroides; settings: scale 0 (no effect) to 100 (complete control)
# Method in brief: (§3)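 After treating 2-leaf paddy plants or 2–18 cm postemergence plants (1 to 4 leaves) with formulated chemical, researchers kept them in a greenhouse for 13–15 days. Effects were judged visually versus controls: 0 indicates none, 100 total control.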
# [12] = system: wheat; assay: Test B postemergence herbicide test; format: in vivo, Triticum aestivum; parameters: key to Wheat plant response rating: 0 = no effect, 100 = complete control
# Method in brief: (§4)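 Plants grow to 1- to 4-leaf stage (2–18 cm) for postemergence spraying, or to 2-leaf stage for the paddy test. Formulated compound is applied. Greenhouse holding lasts 13–15 days. Response is scored visually relative to controls, 0 no effect to 100 complete control; a dash means no result.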
# [13] = system: wild oat; assay: Test B postemergence herbicide test; format: in vivo, Avena fatua; settings: scale 0 (no effect) to 100 (complete control)
# Method in brief: as §4
# [14] = system: rice; assay: Test B flooded paddy test; format: in vivo, Oryza sativa; settings: 1000 g ai/ha, scale 0 to 100 (0 no effect, 100 complete control)
# Method in brief: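 Paddy species grown to the 2-leaf stage under flooding; blackgrass sprayed postemergence at 2–18 cm (1- to 4-leaf stage). Plants kept in a greenhouse for 13 to 15 days, then visually rated against controls on 0 (no effect) to 100 (complete control).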
# [15] = system: small flower umbrella sedge; assay: Test B flooded paddy test; format: in vivo, Cyperus difformis; settings: 1000 g ai/ha, scale 0 to 100 (0 no effect, 100 complete control)
# Method in brief: as §3
# [16] = system: ducksalad; assay: Test B flooded paddy test; format: in vivo, Heteranthera limosa; settings: 1000 g ai/ha, scale 0 to 100 (0 no effect, 100 complete control)
# Method in brief: as §3
# [17] = system: barnyardgrass; assay: Test B flooded paddy test; format: in vivo, Echinochloa crus-galli; settings: 1000 g ai/ha, scale 0 to 100 (0 no effect, 100 complete control)
# Method in brief: as §3
# [18] = system: rice; assay: Test C flooded paddy test; format: in vivo, Oryza sativa
# Method in brief: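 Postemergence sprays applied to plants 2 to 18 cm tall (1- to 4-leaf stage); paddy species grown to 2-leaf stage under flooding. After 12 to 14 days in greenhouse, visual rating versus untreated controls on 0–100 scale (0 no effect, 100 complete control).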
# [19] = system: smallflower umbrella sedge; assay: Test C flooded paddy test; format: in vivo, Cyperus difformis
# [20] = system: ducksalad; assay: Test C flooded paddy test; format: in vivo, Heteranthera limosa
# [21] = system: barnyardgrass; assay: Test C flooded paddy test; format: in vivo, Echinochloa crus-galli
# Method in brief: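 Visual rating, 0 (no effect) to 100 (complete control), vs. controls at 12–14 d in greenhouse. Postemergence: 1–4-leaf plants, 2–18 cm. Paddy: flooded, barnyardgrass at 2-leaf stage.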
# [22] = 125 g ai/ha, 0 is no effect, 100 is complete control, preemergence
# [23] = 125 g ai/ha, visual rating, postemergence
# [24] = 125 g ai/ha, scale 0 to 100 (0 no effect, 100 complete control)
# [25] = 250 g ai/ha, scale of 0 to 100, 0 is no effect, 100 is complete control
# [26] = 500 g ai/ha, visual rating after 12 to 14 days, scale 0 to 100 (0 no effect, 100 complete control)
structure (smiles),measurement,setting,value
Cc1nn(C(C)C)nc1C(=O)Nc1cccc(C(=O)N2CC=CC2)c1 [Compound 406],"Plant response rating (0 to 100 scale), Barnyardgrass",[1]; [22],40
same,Barnyardgrass plant response rating,[1]; [23],10
same,Barnyardgrass plant response rating,"[1]; Postemergence, 500 g ai/ha",20
same,"Plant response rating (0 to 100 scale), Surinam Grass",[2]; [22],20
same,Surinam Grass plant response rating,[2]; [23],0
same,Surinam Grass plant response rating,"[2]; Postemergence, 500 g ai/ha",20
same,"Plant response rating (0 to 100 scale), Cocklebur",[3]; [22],0
same,Cocklebur plant response rating,[3]; [23],20
same,Cocklebur plant response rating,"[3]; Postemergence, 500 g ai/ha",50
same,"Plant response rating (0 to 100 scale), Corn",[4]; [22],0
same,Corn plant response rating,[4]; [23],0
same,Corn plant response rating,"[4]; Postemergence, 500 g ai/ha",10
same,"Plant response rating (0 to 100 scale), Crabgrass, Large",[5]; [22],90
same,"Crabgrass, Large plant response rating",[5]; [23],10
same,"Crabgrass, Large plant response rating","[5]; Postemergence, 500 g ai/ha",20
same,"Plant response rating (0 to 100 scale), Foxtail, Giant",[6]; [22],20
same,"Foxtail, Giant plant response rating",[6]; [23],30
same,"Foxtail, Giant plant response rating","[6]; Postemergence, 500 g ai/ha",40
same,"Plant response rating (0 to 100 scale), Lambsquarters",[7]; [22],90
same,Lambsquarters plant response rating,[7]; [23],50
same,Lambsquarters plant response rating,"[7]; Postemergence, 500 g ai/ha",60
same,"Plant response rating (0 to 100 scale), Morningglory",[8]; [22],10
same,Morningglory plant response rating,[8]; [23],20
same,Morningglory plant response rating,"[8]; Postemergence, 500 g ai/ha",60
same,"Plant response rating (0 to 100 scale), Pigweed",[9]; [22],50
same,Pigweed plant response rating,[9]; [23],40
same,Pigweed plant response rating,"[9]; Postemergence, 500 g ai/ha",50
same,"Plant response rating (0 to 100 scale), Velvetleaf",[10]; [22],10
same,Velvetleaf plant response rating,[10]; [23],20
same,Velvetleaf plant response rating,"[10]; Postemergence, 500 g ai/ha",30
same,Blackgrass plant response rating,[11]; [23],10
same,Blackgrass plant response rating,"[11]; Postemergence, 500 g ai/ha",20
same,Wheat plant response rating,"[12]; 125 g ai/ha, visual rating, scale 0 (no effect) to 100 (complete control), postemergence",0
same,Wheat plant response rating,"[12]; 500 g ai/ha, scale 0 to 100, 0 no effect, 100 complete control, preemergence",40
same,Wheat plant response rating,"[12]; Postemergence, 500 g ai/ha, scale 0 (no effect) to 100 (complete control)",0
same,"Oat, Wild plant response rating",[13]; [23],0
same,"Oat, Wild plant response rating","[13]; Postemergence, 500 g ai/ha",10
same,Rice plant response rating,[14],60
same,"Sedge, Umbrella plant response rating",[15],90
same,Ducksalad plant response rating,[16],90
same,Barnyardgrass plant response rating,[17],90
same,Rice plant response rating,"[18]; 62 g ai/ha, scale 0 to 100",20
same,Rice plant response rating,[18]; [24],35
same,Rice plant response rating,[18]; [25],40
same,"Plant response rating, Rice",[18]; [26],45
same,"Sedge, Umbrella plant response rating","[19]; 62 g ai/ha, scale 0 to 100",75
same,"Sedge, Umbrella plant response rating",[19]; [24],75
same,"Sedge, Umbrella plant response rating",[19]; [25],75
same,"Plant response rating, Sedge, Umbrella",[19]; [26],75
same,Ducksalad plant response rating,"[20]; 62 g ai/ha, scale 0 to 100",20
same,Ducksalad plant response rating,[20]; [24],20
same,Ducksalad plant response rating,[20]; [25],50
same,"Plant response rating, Ducksalad",[20]; [26],75
same,Barnyardgrass plant response rating,"[21]; 62 g ai/ha, scale 0 to 100 (0 no effect, 100 complete control)",10
same,Barnyardgrass plant response rating,[21]; [24],25
same,Barnyardgrass plant response rating,[21]; [25],30
same,"Plant response rating, Barnyardgrass",[21]; [26],40
